One experiment has as its system FAB1 TDP-43 yeast strain. Briefly: Propidium iodide viability assay, FAB1 TDP-43 yeast strain. Format: cell-based. The following applies: for FAB1 TDP-43 (active/inactive): FAB1 TDP-43 yeast model. An excerpt:
(§1) Generation of TDP-43 yeast model expressing human PIKfyve. Human PIKFYVE (“entry clone”) was cloned into pAG416GPDccdB (“destination vector”) according to standard Gateway cloning protocols (Invitrogen, Life Technologies). The resulting pAG416GPD-PIKFYVE plasmids were amplified in E. coli and plasmid identity confirmed by restriction digest and Sanger sequencing. Lithium acetate/polyethylene glycol-based transformation was used to introduce the above PIKFYVE plasmid into a BY4741 yeast strain auxotrophic for the ura3 gene and deleted for two transcription factors that regulate the xenobiotic efflux pumps, a major efflux pump, and FAB1, the yeast ortholog of PIKFYVE (MATa, snq2::KILeu2; pdr3::KIura3;pdr1::NATMX; fab1::G418^R, his 3;leu2;ura3;met15;LYS2+) (FIG. 2). Transformed yeast were plated on solid agar plates with complete synthetic media lacking uracil (CSM-ura) and containing 2% glucose. Individual colonies harboring the control or PIKFYVE TDP-43 plasmids were recovered. A plasmid containing wild-type TDP-43 under the transcriptional control of the GAL1 promoter and containing the hygromycin-resistance gene as a selectable marker was transformed into the fab1::G418^R pAG416GPD-PIKFYVE yeast strain (FIG. 1). Transformed yeast were plated on CSM-ura containing 2% glucose and […] G418 after overnight recovery in media lacking antibiotic. Multiple independent isolates were further evaluated for cytotoxicity and TDP-43 expression levels.
(§2) Viability Assay. A control yeast strain with the wild-type yeast FAB1 gene and TDP-43 (“FAB1 TDP-43”, carries empty pAG416 plasmid), and the “PIKFYVE TDP-43” yeast strain, were assessed for toxicity using a propidium iodide viability assay. Both yeast strains were transferred from solid CSM-ura/2% glucose agar plates into 3 mL of liquid CSM-ura/2% glucose media for 6-8 hours at 30° C. with aeration. Yeast cultures were then diluted to an optical density at 600 nm wavelength (OD600) of 0.005 in 3 mL of CSM-ura/2% raffinose and grown overnight at 30° C. with aeration to an OD600 of 0.3-0.8. Log-phase overnight cultures were diluted to OD600 of 0.005 in CSM-ura containing either 2% raffinose or galactose and 150 μL dispensed into each well of a flat bottom 96-well plates. Compounds formulated in 100% dimethyl sulfoxide (DMSO) were serially diluted in DMSO and 1.5 μL diluted compound transferred to the 96-well plates using a multichannel pipet. Wells containing DMSO alone were also evaluated as controls for compound effects. Tested concentrations ranged from 15 μM to 0.11 μM. Cultures were immediately mixed to ensure compound distribution and covered plates incubated at 30° C. for 24 hours in a stationary, humified incubator.
(§3) Upon the completion of incubation, cultures were assayed for viability using propidium iodide (PI) to stain for dead/dying cells. A working solution of PI was made where, for each plate, 1 μL of 10 mM PI was added to 10 mL of CSM-ura (raffinose or galactose). The final PI solution (50 μL/well) was dispensed into each well of a new round bottom 96-well plate. The overnight 96-well assay plate was then mixed with a multichannel pipet and 50 μL transferred to the PI-containing plate. This plate was then incubated for 30 minutes at 30° C. in the dark. A benchtop flow cytometer (Miltenyi MACSquant) was then used to assess red fluorescence (B2 channel), forward scatter, and side scatter (with following settings: gentle mix, high flow rate, fast measurement, 10,000 events). Intensity histograms were then gated for “PI-positive” or “PI-negative” using the raffinose and galactose cultures treated with DMSO as controls. The DMSO controls for raffinose or galactose-containing cultures were used to determine the window of increased cell death and this difference set to 100. All compounds were similarly gated and then compared to this maximal window to establish the percent reduction in PI-positive cells.

In experiment [1] the test system is PIKFYVE TDP-43 yeast strain. Put plainly: Propidium iodide viability assay, PIKFYVE TDP-43 yeast strain. It is filed as cell-based. The following applies: for PIKfyve TDP-43 (active/inactive): PIKFYVE TDP-43 yeast model; for pIC50: Saccharomyces cerevisiae, PIKFYVE TDP-43 yeast strain, reduction in PI-positive cells, highest concentration 15 μM, read-out: BIKFYVE TDP-43 (IC50).
Excerpt: as §1, §2, §3
Biochemical and Efficacy Assays. […]

The target in experiment [2] is full-length human PIKFYVE (N-terminal GST-fusion) (Homo sapiens (Human), UniProt Q9Y2I7, L932S/Q1183K/Q995L/S1033A/S696N/T998S). Put plainly: PIKfyve biochemical assay (ADP-Glo Kinase assay, Carna Biosciences). Summed up:
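Baculovirus-expressed, glutathione-purified GST-tagged full-length human PIKFYVE (S696N/L932S/Q995L/T998S/S1033A/Q1183K) reacted with substrate and ATP in 50 mM MOPS, 1 mM DTT, pH 7.2, 1 h at room temperature. ADP formed read by ADP-Glo luminescence.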
For orientation: ADP-Glo turns the ADP formed in a reaction into a luminescent signal.

The target in experiment [3] is PIKfyve (PIKFYVE-NanoLuc fusion in HEK293 cells) (Homo sapiens (Human), UniProt Q9Y2I7). Briefly: NanoBRET TE Intracellular Kinase Assay, K-8 (Promega) cell-based assay. The following applies: transfected HEK293 cells, 2 hours, read-out: hPIKfyve BRET IC50. As for the experimental part:
NanoBRET™ TE Intracellular Kinase Assay, K-8 (Promega) Cell-Based Assay. Intracellular inhibition of PIKfyve was assayed using Promega's NanoBRET™ TE Intracellular Kinase Assay, K-8 according to manufacturer's instructions. A dilution series of test compounds was added for 2 hours to HEK293 cells transfected for a minimum of 20 hours with PIKFYVE-NanoLuc® Fusion Vector (Promega) containing a full-length PIKfyve according to manufacturer's specifications in a 96-well plate. Kinase activity was detected by addition of a NanoBRET™ tracer reagent, which was a proprietary PIKfyve inhibitor appended to a fluorescent probe (BRET, bioluminescence resonance energy transfer). Test compounds were tested at concentrations of 10, 3, 1, 0.3, 0.1, 0.03, 0.01, 0.003 μM. BRET signals were measured by a GloMax®Discover Multimode Microplate Reader (Promega) using 0.3 sec/well integration time, 450 BP donor filter and 600 LP acceptor filters. Active test compounds that bound PIKfyve and displaced the tracer reduced BRET signal. IC50 values were then calculated by fitting the data to the normalized BRET ratio.

[4] abbreviates: ADP-Glo, full-length human GST-PIKFYVE, 10 μM to 3 nM, read-out: hPIKfyve IC50.

We go through 19 compounds from patent US20250145642A1, “BICYCLIC HETEROARENES AND METHODS OF THEIR USE” (Kineta, Inc., priority 2021, published 2025).

The pIC50 is −log10 of the IC50, conventionally taken in molar units.

Structures are written as SMILES. pIC50: −log10 of the molar value. Read-outs that look alike come from different tables or passages of the source.

Chain of PIKfyve (PIKFYVE-NanoLuc fusion in HEK293 cells) (Q9Y2I7 whole entry, the tested form may be a part): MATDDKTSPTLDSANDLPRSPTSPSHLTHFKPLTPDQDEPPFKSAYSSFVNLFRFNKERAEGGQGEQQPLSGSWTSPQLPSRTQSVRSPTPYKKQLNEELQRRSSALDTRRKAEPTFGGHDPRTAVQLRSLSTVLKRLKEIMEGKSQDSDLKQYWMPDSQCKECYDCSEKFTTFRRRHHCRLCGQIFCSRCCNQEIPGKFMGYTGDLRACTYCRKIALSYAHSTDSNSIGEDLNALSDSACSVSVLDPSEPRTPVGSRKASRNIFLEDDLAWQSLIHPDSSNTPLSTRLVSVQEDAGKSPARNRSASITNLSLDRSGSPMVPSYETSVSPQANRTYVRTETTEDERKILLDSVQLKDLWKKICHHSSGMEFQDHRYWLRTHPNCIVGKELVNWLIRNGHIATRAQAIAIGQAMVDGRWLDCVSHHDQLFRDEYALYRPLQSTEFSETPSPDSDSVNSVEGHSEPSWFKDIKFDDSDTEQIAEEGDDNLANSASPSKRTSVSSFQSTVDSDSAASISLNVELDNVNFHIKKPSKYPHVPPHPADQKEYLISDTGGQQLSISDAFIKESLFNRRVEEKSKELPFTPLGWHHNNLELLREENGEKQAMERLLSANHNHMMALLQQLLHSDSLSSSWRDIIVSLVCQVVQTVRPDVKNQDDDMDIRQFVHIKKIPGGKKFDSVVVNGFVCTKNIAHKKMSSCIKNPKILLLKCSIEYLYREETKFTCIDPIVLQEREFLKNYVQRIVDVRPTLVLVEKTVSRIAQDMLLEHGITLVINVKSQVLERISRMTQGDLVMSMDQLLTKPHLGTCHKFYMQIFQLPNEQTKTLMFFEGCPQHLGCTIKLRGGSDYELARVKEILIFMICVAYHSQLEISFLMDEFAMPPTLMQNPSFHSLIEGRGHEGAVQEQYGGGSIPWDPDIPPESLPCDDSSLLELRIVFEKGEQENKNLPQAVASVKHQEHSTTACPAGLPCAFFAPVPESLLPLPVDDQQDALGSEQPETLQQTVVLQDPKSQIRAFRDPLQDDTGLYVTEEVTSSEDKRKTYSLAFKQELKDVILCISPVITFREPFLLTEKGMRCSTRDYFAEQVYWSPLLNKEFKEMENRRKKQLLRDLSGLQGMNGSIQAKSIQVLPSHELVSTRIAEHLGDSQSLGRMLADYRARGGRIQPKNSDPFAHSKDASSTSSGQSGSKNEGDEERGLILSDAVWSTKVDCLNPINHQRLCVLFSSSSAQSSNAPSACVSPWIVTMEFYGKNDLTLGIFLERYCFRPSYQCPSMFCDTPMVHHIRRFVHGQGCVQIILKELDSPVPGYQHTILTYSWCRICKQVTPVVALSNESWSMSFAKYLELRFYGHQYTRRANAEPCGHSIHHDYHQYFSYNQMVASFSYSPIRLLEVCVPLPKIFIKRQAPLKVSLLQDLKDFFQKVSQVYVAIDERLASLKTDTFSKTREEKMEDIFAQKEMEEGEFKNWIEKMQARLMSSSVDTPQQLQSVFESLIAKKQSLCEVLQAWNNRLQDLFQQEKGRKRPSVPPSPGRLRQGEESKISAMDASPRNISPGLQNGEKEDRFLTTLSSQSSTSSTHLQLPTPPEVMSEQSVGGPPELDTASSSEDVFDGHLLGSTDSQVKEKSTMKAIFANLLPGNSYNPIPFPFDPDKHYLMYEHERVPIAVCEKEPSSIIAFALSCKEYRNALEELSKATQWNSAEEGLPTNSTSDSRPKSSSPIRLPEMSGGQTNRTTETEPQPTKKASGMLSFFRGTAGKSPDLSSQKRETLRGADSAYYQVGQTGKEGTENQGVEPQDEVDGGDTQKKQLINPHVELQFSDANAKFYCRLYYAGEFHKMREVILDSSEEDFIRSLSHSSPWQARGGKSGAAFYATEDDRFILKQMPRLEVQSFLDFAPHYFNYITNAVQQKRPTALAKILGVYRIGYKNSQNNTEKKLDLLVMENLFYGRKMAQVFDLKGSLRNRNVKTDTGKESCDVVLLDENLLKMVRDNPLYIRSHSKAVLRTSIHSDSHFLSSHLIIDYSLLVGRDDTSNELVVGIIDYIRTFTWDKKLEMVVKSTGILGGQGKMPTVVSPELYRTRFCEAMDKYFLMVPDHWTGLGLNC
Chain of full-length human PIKFYVE (N-terminal GST-fusion) (Q9Y2I7 whole entry S696N/L932S/Q995L/T998S/S1033A/Q1183K, the tested form may be a part): as the sequence (Q9Y2I7 whole entry, the tested form may be a part) above, with S696N, L932S, Q995L, T998S, S1033A, Q1183K counted along it

Regarding `Cc1cccc(/C=N/Nc2cc(N3CC4CC3CO4)n3nc(-c4ccncc4)cc3n2)c1` (centres unmarked), the “FAB1 TDP-43 (active/inactive)” value in the experiment on FAB1 TDP-43 yeast strain is reported as “Inactive”. The “PIKfyve TDP-43 (active/inactive)” value in experiment [1] is reported as “Active”.
On to `Cc1cccc(/C=N/Nc2nc3c(c(N4CCOCC4)n2)N=C(c2ccncc2)C3C)c1` (centres unmarked), for which the pIC50 in experiment [2] (ADP-Glo with full-length PIKfyve, read-out: PIKfyve IC50) was 8.31. Also, in the experiment on FAB1 TDP-43 yeast strain, the “FAB1 TDP-43 (active/inactive)” value is on record as “Inactive”. For the same compound, in experiment [1], the “PIKfyve TDP-43 (active/inactive)” value is recorded as “Active”.
Consider `Cn1c(-c2ccncc2)nc2c(N3CCOCC3)ncnc21`, for which the “FAB1 TDP-43 (active/inactive)” value in the experiment on FAB1 TDP-43 yeast strain is on record as “Inactive”. In addition, the “PIKfyve TDP-43 (active/inactive)” value in experiment [1] is “Inactive”.
Regarding `CN(C)c1cc(N2CCOCC2)n2nc(-c3ccncc3)cc2n1`, in the experiment with FAB1 TDP-43 yeast strain, the “FAB1 TDP-43 (active/inactive)” value was “Inactive”. Besides, in experiment [1], the “PIKfyve TDP-43 (active/inactive)” value is “Inactive”.
As to `N#Cc1cc(N2CCOCC2)n2nc(-c3ccncc3)cc2n1`, in the experiment with FAB1 TDP-43 yeast strain, the “FAB1 TDP-43 (active/inactive)” value was “Inactive”. In experiment [1], the “PIKfyve TDP-43 (active/inactive)” value is on record as “Inactive”.
With `Cc1cccc(/C=N/Nc2cc(N3CCOCC3)nc(OCCc3ccc(CN)cc3)n2)c1`, in experiment [1], the pIC50 was 5.95.
For `c1ccc(-c2cccc(-c3cc(N4CCOCC4)n4nc(-c5ccncc5)cc4n3)n2)cc1`, the pIC50 in experiment [1] was 6.64.
Still for that read-out and setting: the value for `Cc1cccc(/C=N/Nc2nc(N3CCOCC3)c3nc(-c4ccncc4)n(C)c3n2)c1` was 5.33; that for `Oc1cc(-c2ccccc2)nn1-c1cc(N2CCOCC2)n2nc(-c3ccncc3)nc2n1` was 6.16; that for `Oc1cc(C2CCOCC2)nn1-c1cc(N2CCOCC2)n2nc(-c3ccncc3)cc2n1` was 5.04.
Consider `Cc1cccc(/C=N/Nc2nc(N3CCOCC3)c3ncccc3n2)c1`, for which the pIC50 in experiment [1] is 5.09.
Regarding `c1ccc(-c2ccnc(-c3cc(N4CCOCC4)nc(OCc4ccncc4)n3)n2)cc1`, the pIC50 in experiment [1] was 5.84.
For `Fc1cccc(-c2ccnn2-c2nc(N3CCOCC3)c3ncccc3n2)c1`, the pIC50 was below 5.00 in experiment [2] (values plotted in FIG. 7, read-out: PIKFYVE Biochemistry (IC50)) and 5.24 in experiment [1].
In the case of `Cc1cccc(/C=N/Nc2cc(N3CCOCC3)n3nc(-c4ccncc4)cc3n2)c1` [APY0201, reference compound], in the experiment on FAB1 TDP-43 yeast strain (across a range of compound concentrations (only 0.23 μM is shown), FIG. 5), the “viable cells in FAB1 TDP-43 (propidium iodide)” value was “no increase in viable cells”. For the same compound, the “propidium iodide-positive dead cells in PIKFYVE TDP-43” value in experiment [1] (0.23 μM, FIG. 6) is given as “reduced the population of propidium iodide-positive dead cells”. For the same compound, the “concentrations affording increased viability in PIKFYVE TDP-43” value in experiment [1] (PIKFYVE TDP-43 model) is reported as “Concentrations ranging from 0.5 mM to less than 100 nM afforded increased viability”.
Turning to `Clc1nc(N2CCOCC2)nc2c1CCN2c1ccccc1` [Compound 1, 4-(4-chloro-7-phenyl-6,7-dihydro-5H-pyrrolo[2,3-d]pyrimidin-2-yl)morpholine], the pIC50 in experiment [2] (setting [4]) and in experiment [3] was 6.00 to 7.00 in each case.
As to `c1ccc(N2CCc3c(OC4CCOCC4)nc(N4CCOCC4)nc32)cc1` [Compound 21, 4-(7-phenyl-4-((tetrahydro-2H-pyran-4-yl)oxy)-6,7-dihydro-5H-pyrrolo[2,3-d]pyrimidin-2-yl)morpholine], the pIC50 in experiment [2] (setting [4]) and in experiment [3] was 6.00 to 7.00 in each case.
In the case of `c1ccc(-n2ncc3c(OCc4cccnc4)nc(N4CCOCC4)nc32)cc1` [Compound 132, 4-(1-phenyl-4-(pyridin-3-ylmethoxy)-1H-pyrazolo[3,4-d]pyrimidin-6-yl)morpholine], the pIC50 in experiment [2] (setting [4]) was 7.00 to 8.00; in experiment [3], 6.00 to 7.00.
`Cc1cccc(/C=N/Nc2cc(N3CCOCC3)n3nc(-c4ccncc4)cc3n2)c1` [drawing 514]: the “FAB1 TDP-43 (active/inactive)” value in the experiment with FAB1 TDP-43 yeast strain is given as “Inactive”. Moreover, the “PIKfyve TDP-43 (active/inactive)” value in experiment [1] was “Active”.
As for `c1ccc(N2CCc3c(OCc4cccnc4)nc(N4CCOCC4)nc32)cc1` [drawing 539], the pIC50 in experiment [1] is 5.57.
